The test system of experiment [1] is EAE mice. The experiment in a line: Experimental allergic encephalomyelitis (EAE) in C57/BL6 mice. In kind it is in vivo, mouse. The conditions noted are these: 0.1 mg/kg body wt/d intranasal from 10 dpi. The source says:
FIG. 7 (A-V). The wtTIDM, but not mTIDM, peptide protects mice from experimental allergic encephalomyelitis (EAE) and collagen-induced arthritis (CIA). […] Mice (n=6 per group in two independent experiments) were scored daily. […] On 22 dpi, general motor activities were monitored using the Ethovision XT 13.0 Open Field Activity System (Noldus) (B, heat-map images representing overall motor activities; C, distance travelled; D, rearing; E, velocity; F, acceleration) and rotorod (G). Foot print analysis (H, stride length; I, print length; J, sway length; K, toe spread) was also performed, L) CIA was induced in male DBA/1J mice by bovine type II collagen immunization and from 29 dpi, mice were treated with wtTIDM and mTIDM peptides (1 mg/kg body wt/d) via i.p. injection. Mice (n=6 per group in two independent experiments) were scored daily. […] On 60 dpi, general motor activities were monitored by Ethovision System (M, heat-map images representing overall motor activities; N, distance travelled; O, rearing; P, velocity), rotorod (Q) and grip strength (R). Foot print analysis (S, stride length; T, print length; U, sway length; V, toe spread) was also performed. Six mice (n=6 per group) were used in two independent experiments. ap<0.001 & bp<0.05 vs control; cp<0.001 & dp<0.05 vs EAE or CIA by two-sample t-tests.
FIG. 25 (A-D). Footprint analysis of EAE mice after treatment with wtTIDM and mTIDM peptides. On the walking track, we applied white paper strips and obtained the footprints of mice of different groups (A, control; B, EAE; C, EAE+wtTIDM; D, EAE+mTIDM) on paper using black ink. A total of 30-40 steps for each group were determined. Four different footprint measurements, viz., stride length (SL), print length (PL), sway length (SWL), and toe spread (TS) were calculated in centimeters from the recorded prints of mice. While SL refers the distance between the front edge of two consecutive prints of the same paw, SWL refers the distance between the paws perpendicular to the distance of travel and PL indicates the measurement of length of print area. […]

Experiment [2] concerns the target T1, C-terminal TIR domain of TLR2 protein (cTLR2) (Mus musculus, UniProt Q9QUN7).
T1 construct: The cTLR2 (640-784 amino acids) tagged with c-myc was cloned in lenti vector; made in house; host or cells: HEK293 cells (lentiviral expression)
Put plainly: Surface plasmon resonance binding of TIDM peptides to cTLR2. As for the experimental part: TLR2 full-length construct (pLenti-cmyc-DDK/tlr2) was purchased from Origene. The cTLR2 (640-784 amino acids) tagged with c-myc was cloned in lenti vector using TOPO TA cloning kit (K5310-00; Life technologies). Briefly, a kozak sequence was incorporated in the upstream of C-terminal TIR domain of TLR2. Next, cTLR2 was cloned in lentivector followed by packaging in lentivirus using HEK293FT cells. After 48 h, media was collected and concentrated with Lenti-X Concentrator (Cat #631231; Clontech). This concentrated lentiviral sup was used for viral transduction. The cTLR2 protein was isolated from HEK293 cell lysate by passing through Myc affinity column. Purified protein was desalted and concentrated by using 10 kD molecular cut-off filtration system.
To analyze the binding of TLR2 with TIDM peptides, surface plasmon resonance (SPR) experiments were carried out using a Reichert 4SPR instrument (Reichert Technologies, Buffalo, NY). Binding assay was performed using a 500 kDa Carboxymethyl Dextran Gold Sensor Slide (Reichert Inc.) for capturing TLR2. Protein immobilization was at a flow rate of 30 μl/min in PBS for 3 min with 0.8 mg/mL solution of TLR2. For analyte association, different concentrations of wtTIDM and mTIDM peptides in PBS running buffer were injected for 2.5 min at a rate of 30 μl/min followed by a dissociation phase of 3 min. The sensor surface was regenerated after each dissociation cycle by allowing buffer to flow at 40 μl/min for a minimum of 15 min. Signals obtained for the TLR2-bound surface were subtracted by signals obtained for the reference cell according to standard procedure using the system software. The concentration dependence of the subtracted signal was analyzed to determine binding affinity of TLR2 with wtTIDM and mTIDM peptides.
(Surface plasmon resonance follows binding to a sensor surface in real time, without labels.)

For experiment [3], the system named is TNFα and IL-1β. Put plainly: TNFα and IL-1β ELISA in supernatants of WT primary microglia. Format: cell-based, mouse. To be noted: peptide 1 h, 1 μM fibrillar Aβ1-42 for 18 h. As for the experimental part:
FIG. 16 (A-F). […] Primary microglia isolated from WT (A) and TLR2 (−/−) (B) mice were treated with different concentrations of wtTIDM peptide for 1 h followed by stimulation with 1 μM fibrillar Aβ1-42 under serum-free condition. After 1 h of stimulation, the activation of NF-κB was monitored by EMSA. WT (C & D) and TLR2 (−/−) (E & F) microglia were treated with different concentrations of wtTIDM and mTIDM peptides for 1 h followed by stimulation with 1 μM fibrillar Aβ1-42 under serum-free condition. After 18 h of stimulation, levels of TNFα (C & E) and IL-1β (D & F) were monitored in supernatants by ELISA (n=2 replicates/condition in 3 independent experiments). ap<0.001 vs control; bp<0.001 vs stimuli by two-sample t-tests.
For orientation: An ELISA detects its analyte on a solid surface through an enzyme-linked reagent.

T1 sequence (Q9QUN7 640-784): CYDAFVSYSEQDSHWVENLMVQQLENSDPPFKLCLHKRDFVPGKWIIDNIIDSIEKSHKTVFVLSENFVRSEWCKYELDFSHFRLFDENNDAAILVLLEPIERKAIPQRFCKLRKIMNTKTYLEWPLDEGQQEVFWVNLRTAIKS

For the molecule `CC[C@H](C)[C@H](NC(=O)[C@H](CCCCN)NC(=O)[C@@H](NC(=O)[C@H](CCC(N)=O)NC(=O)[C@H](CCCNC(=N)N)NC(=O)[C@@H](N)CC(=O)O)[C@@H](C)CC)C(=O)N[C@@H](Cc1c[nH]c2ccccc12)C(=O)N[C@@H](Cc1ccccc1)C(=O)N[C@@H](CCC(N)=O)C(=O)N[C@@H](CC(N)=O)C(=O)N[C@@H](CCCNC(=N)N)C(=O)N[C@@H](CCCNC(=N)N)C(=O)N[C@@H](CCSC)C(=O)N[C@@H](CCCCN)C(=O)N[C@@H](Cc1c[nH]c2ccccc12)C(=O)N[C@@H](CCCCN)C(=O)N[C@@H](CCCCN)C(=O)N1CCC[C@H]1C(=O)NCC(=O)N[C@@H](Cc1c[nH]c2ccccc12)C(=O)N[C@@H](Cc1c[nH]cn1)C(=O)N[C@@H](CCC(N)=O)C(=O)N[C@@H](CC(=O)O)C(=O)O` [mTIDM, drqikiwfqnrrmkwkkPGWHQD], the “clinical symptoms of EAE” value in experiment [1] is “had no effect”. Binding in experiment [2] was characterised by a dissociation constant (Kd) of 19 µM.

Turning to `CC[C@H](C)[C@H](NC(=O)[C@H](CCCCN)NC(=O)[C@@H](NC(=O)[C@H](CCC(N)=O)NC(=O)[C@H](CCCNC(=N)N)NC(=O)[C@@H](N)CC(=O)O)[C@@H](C)CC)C(=O)N[C@@H](Cc1c[nH]c2ccccc12)C(=O)N[C@@H](Cc1ccccc1)C(=O)N[C@@H](CCC(N)=O)C(=O)N[C@@H](CC(N)=O)C(=O)N[C@@H](CCCNC(=N)N)C(=O)N[C@@H](CCCNC(=N)N)C(=O)N[C@@H](CCSC)C(=O)N[C@@H](CCCCN)C(=O)N[C@@H](Cc1c[nH]c2ccccc12)C(=O)N[C@@H](CCCCN)C(=O)N[C@@H](CCCCN)C(=O)N1CCC[C@H]1C(=O)NCC(=O)N[C@@H](C)C(=O)N[C@@H](Cc1c[nH]cn1)C(=O)N[C@@H](CCC(N)=O)C(=O)N[C@@H](CCCCN)C(=O)O` [wtTIDM, drqikiwfqnrrmkwkkPGAHQK], in experiment [1], the “clinical symptoms of EAE” value is on record as “strongly inhibited”. Further, the “locomotor activities and footprints in EAE mice” value in experiment [1] (22 dpi) is listed as “improved”. For the same molecule, the “inhibition of fibrillar Aβ1-42-induced production of TNFα and IL-1β in WT microglia” value in experiment [3] is given as “inhibited”. Moreover, the Kd – broadly, the free concentration of one partner at which half of the binding sites on the other are occupied at equilibrium, for simple one-to-one binding – in experiment [2] stood at 8 µM. The “affinity for cTLR2 stronger than mTIDM” value in experiment [2] (ratio of Kd values) is listed as “approximately 2.5 times”.

The values above are taken from patent US12251422B2, “Compositions and methods for treating neurological and other disorders” (Rush University Medical Center, priority 2018, dated 2025).
